In patent US20230181584A1, “METHOD OF TREATING CANCER HAVING AN ACTIVATED HEDGEHOG PATHWAY” (Endeavor Biomedicines, Inc., priority 2021, published 2023):

How the values were obtained:
advanced cancer [1] = test: HHBB: Phase 1 dose-escalation study of taladegib in patients with advanced cancer; assay type: in vivo, human; conditions: N=84, monotherapy, RECIST v1.1
Excerpt: (§1) Approximately 192 study participants have received at least one dose of taladegib in sponsor-initiated and -controlled trials for the treatment of advanced cancers. The clinical trials were: • q. HHBB: Phase 1 dose-escalation study to evaluate the safety and tolerability of taladegib in patients with advanced cancer. • r. HHBE: Phase Ib/2 double-blind randomized study of the Human smoothened (hSmo) antagonist taladegib in combination with carboplatin and etoposide followed by taladegib versus carboplatin and etoposide plus placebo followed by placebo in patients with extensive stage small cell lung cancer (SCLC). • s. HHBH: Phase 1 study of taladegib in Japanese patients with advanced solid tumors. • t. HIPROC: An investigator-initiated Phase 1a/1b dose-escalation study of taladegib in combination with weekly intravenous paclitaxel in patients with advanced solid cancers. • u. HHBF: A Phase 1 ^14C metabolism study of 100 mg of taladegib in healthy subjects. • v. HHBG: A Phase 1 single ascending dose study of taladegib in healthy subjects.
(§2) Participants include approximately 156 advanced cancer patients from studies HHBB (N=95), HHBE (N=26), HHBH (N=19), HIPROC (N=16) and 36 healthy volunteers from studies HHBG (N=30) and HHBF (N=6).
(§3) The primary tumor type enrolled was BCC. Additionally, responses in medulloblastoma (monotherapy), SCLC (in combination with carboplatin and etoposide) and ovarian cancer (in combination with paclitaxel) were also observed.

[2] = system: extensive stage small cell lung cancer (SCLC); test: HHBE: Phase Ib/2 study of taladegib with carboplatin and etoposide in extensive stage SCLC; assay type: in vivo, human; conditions: in combination with carboplatin and etoposide, N=26, RECIST v1.1
Excerpt: as §1, §2, §3

[3] = Safety in clinical trials of taladegib (healthy volunteers and advanced cancer patients); assay type: in vivo, human
Excerpt: as §1, §2
As expected, AEs associated with chemotherapy were also observed when taladegib was used in combination with anti-neoplastic agents.

Gli1 activity = conditions: Daoy cells; as described in U.S. Pat. No. 9,000,023; read-out: IC50, inhibition of Gli1 activity; cited from earlier work
advanced solid tumors = test: HHBH: Phase 1 study of taladegib in Japanese patients with advanced solid tumors; assay type: in vivo, human; conditions: N=19, RECIST v1.1
Excerpt: as §1, §2, §3

advanced cancer [4] = test: Clinical benefit across all completed studies of taladegib in advanced cancer (total); assay type: in vivo, human
Excerpt: as §1, §2, §3

advanced solid cancers = test: HIPROC: Phase 1a/1b dose-escalation study of taladegib with weekly intravenous paclitaxel; assay type: in vivo, human; conditions: in combination with weekly intravenous paclitaxel, N=16, RECIST v1.1
Excerpt: as §1, §2, §3

advanced cancer [5] = test: HHBB addendum; assay type: in vivo, human; conditions: N=11, RECIST v1.1
Excerpt: as §3

[6] = background statement on Hh pathway inhibitors; cited from earlier work
[7] = Total of all completed studies, N=156

SMILES: CN(C(=O)c1ccc(F)cc1C(F)(F)F)C1CCN(c2nnc(-c3ccnn3C)c3ccccc23)CC1 [Taladegib, 4-Fluoro-N-methyl-N-(1-(4-(1-methyl-1H-pyrazol-5-yl)phthalazin-1-yl)piperidin-4-yl)-2-(trifluoromethyl)benzamide]
- CR (complete response), number of patients (advanced cancer [1]): 5
- CR (complete response), percent of patients (advanced cancer [1]): 6%
- Clinical Benefit, number of patients (advanced cancer [1]): 48
- Clinical Benefit, percent of patients (advanced cancer [1]): 57%
- PR (partial response), number of patients (advanced cancer [1]): 17
- PR (partial response), percent of patients (advanced cancer [1]): 20%
- CR (complete response), number of patients [2]: 0 (0%)
- CR (complete response), percent of patients [2]: 0 (0%)
- Clinical Benefit, number of patients [2]: 21
- Clinical Benefit, percent of patients [2]: 81%
- PR (partial response), number of patients [2]: 14
- PR (partial response), percent of patients [2]: 54%
- Safety profile ([3]; advanced cancer patients, monotherapy and combination with anti-neoplastic agents): manageable safety profile
- Most commonly observed AEs ([3]; as a monotherapy): nausea, diarrhea, dysgeusia, fatigue, decreased appetite, alopecia, vomiting, muscle spasm, constipation, weight decrease, and headache
- Important potential risks associated with treatment ([3]; on the basis of preclinical and clinical data and information for molecules in the same therapeutic class): hepatic injury, embryotoxicity and teratogenicity, and rhabdomyolysis
- IC50 (Gli1 activity): ~2.4 nM
- CR (complete response), number of patients (advanced solid tumors): 0 (0%)
- CR (complete response), percent of patients (advanced solid tumors): 0 (0%)
- Clinical Benefit, number of patients (advanced solid tumors): 5
- Clinical Benefit, percent of patients (advanced solid tumors): 26%
- PR (partial response), number of patients (advanced solid tumors): 1
- PR (partial response), percent of patients (advanced solid tumors): 5%
- CR (complete response), number of patients (advanced cancer [4]; [7]): 6
- CR (complete response), percent of patients (advanced cancer [4]; [7]): 4%
- Clinical Benefit, number of patients (advanced cancer [4]; [7]): 94
- Clinical Benefit, percent of patients (advanced cancer [4]; [7]): 60%
- PR (partial response), number of patients (advanced cancer [4]; [7]): 42
- PR (partial response), percent of patients (advanced cancer [4]; [7]): 27%
- Clinical (RECIST v1.1) responses by dose (advanced cancer [4]; across all four multiple-dose studies in patients): responses were observed at all doses
- Responses in SCLC (advanced cancer [4]; in combination with carboplatin and etoposide): observed
- Responses in ovarian cancer (advanced cancer [4]; in combination with paclitaxel): observed
- Responses in medulloblastoma (advanced cancer [4]; monotherapy): observed
- CR (complete response), number of patients (advanced solid cancers): 0 (0%)
- CR (complete response), percent of patients (advanced solid cancers): 0 (0%)
- Clinical Benefit, number of patients (advanced solid cancers): 10
- Clinical Benefit, percent of patients (advanced solid cancers): 62%
- PR (partial response), number of patients (advanced solid cancers): 4
- PR (partial response), percent of patients (advanced solid cancers): 25%
- CR (complete response), number of patients (advanced cancer [5]): 1
- CR (complete response), percent of patients (advanced cancer [5]): 9%
- Clinical Benefit, number of patients (advanced cancer [5]): 4
- Clinical Benefit, percent of patients (advanced cancer [5]): 36%
- PR (partial response), number of patients (advanced cancer [5]): 0

SMILES: CC1=C2C[C@H]3[C@@H](CC[C@@H]4C[C@H](NS(C)(=O)=O)CC[C@@]43C)[C@@H]2CC[C@@]2(C1)O[C@@H]1C[C@H](C)CN[C@H]1[C@H]2C [saridegib]
- Toxicity [6]: unacceptable toxicity

SMILES: CS(=O)(=O)c1ccc(C(=O)Nc2ccc(Cl)c(-c3ccccn3)c2)c(Cl)c1 [vismodegib]
- Toxicity [6]: unacceptable toxicity
